US20260132141A1, “PROTEIN PHOSPHATASE 2A ACTIVATORS” (University of Florida Research Foundation, Incorporated, priority 2022, published 2026)

Key:
PP2ACα = PP2ACα (Homo sapiens, UniProt P67775); experiment: surface plasmon resonance (SPR) binding to catalytic subunit PP2ACα; conditions: no KD could be calculated
Text: FIGS. 12A-12E depict surface plasmon resonance (SPR) analysis of the binding of PPA24, PPA27, and NSC49L to catalytic subunit, PP2ACα. FIG. 12A depicts surface plasmon resonance (SPR) studies of PPA24 binding to PP2ACα. FIG. 12B depicts surface plasmon resonance (SPR) studies of PPA27 binding to PP2ACα. FIG. 12C depicts the dissociation constant (KD) of PPA24 binding to PP2ACα. FIG. 12D depicts the dissociation constant (KD) of PPA27 binding to PP2ACα. FIG. 12E depicts surface plasmon resonance (SPR) studies of 100 μM of NSC49L binding to PP2ACα.
Thus, the binding affinity can be in the order of PPA24>PPA27>NSC49L>iHAP1.

[1] = tested on: normal keratinocyte (HaCaT) cells; experiment: cell viability screen in noncancerous HaCaT cells; assay type: cell-based
Text: FIGS. 14A-14C depict cell viability screen of PPA24, PPA27, iHAP1, and NSC49L in normal keratinocyte (HaCaT) (FIG. 14A) and epithelial (FHC) (FIG. 14B) cells, where the compounds were able to showcase selectivity to cancerous cells vs. noncancerous cells. FIG. 14C depicts IC50 concentrations of the compounds in the cells. Analyses were done using GraphPad Prism 7.0 Software.
The compounds PPA24, PPA27, iHAP1, and NSC49L were screened in noncancerous cell lines to observe the selectivity these compounds have towards cancerous cells by assessing the differences in IC50 concentrations.

Chain of PP2ACα (P67775 whole entry): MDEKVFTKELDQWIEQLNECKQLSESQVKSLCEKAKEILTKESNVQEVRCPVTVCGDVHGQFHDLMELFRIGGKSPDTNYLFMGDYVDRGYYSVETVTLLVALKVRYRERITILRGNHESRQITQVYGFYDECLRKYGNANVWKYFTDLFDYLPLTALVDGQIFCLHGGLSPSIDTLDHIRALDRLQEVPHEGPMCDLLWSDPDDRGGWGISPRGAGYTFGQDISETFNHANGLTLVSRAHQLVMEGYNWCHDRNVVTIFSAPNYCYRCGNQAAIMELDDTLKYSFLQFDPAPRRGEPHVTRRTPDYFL

SMILES	SPR binding signal to PP2ACα (PP2ACα)	selectivity: cell viability in HaCaT cells versus CRC cells [1]
ClC/C=C/C[N+]12CN3CN(CN(C3)C1)C2.[Cl-] [NSC49L]	only had a binding signal at 100 μM	some selectivity towards cancerous cells
COc1ccc(C(=O)N2c3ccccc3Sc3ccc(Cl)cc32)cc1 [iHAP1]	did not show a clear signal even at high concentrations	do not appear to have a significant difference
